# Read-outs that look alike come from different tables or passages of the source. Marks after values point to notes of the source that are not given here.
# Legend:
# CYP2C9 = experiment: Cellular Cytochrome P450 induction, CYP2C9; details: tested at 10 μM, cryopreserved human hepatocytes
# [1] = test system: LTB4 in Human Whole Blood; experiment: Human blood LTB4 inhibition assay; assay type: cell-based; details: mean of 8 tests
# Experimental: A non-limiting example of such a human blood LTB4 inhibition assay is as follows: Blood was drawn from consenting, human volunteers into heparinized tubes and 125 μL aliquots added to wells containing 2.5 μL 50% dimethylsulfoxide (vehicle) or 2.5 μL drug in 50% dimethylsulfoxide. Samples were incubated for 15 minutes at 37° C. 2 μL calcium ionophore […] (from a 50 mM dimethylsulfoxide stock diluted just prior to the assay in Flanks balanced salt solution (Invitrogen)) to 1.25 mM) was added, solutions mixed and incubated for 30 minutes at 37° C. Samples were centrifuged at 1,000 rpm (−200×g) for 10 minutes at 4° C., plasma removed and a 1:100 dilution assayed for LTB4 concentration using ELISA (Assay Designs). Drug concentrations to achieve 50% inhibition (IC50's) of vehicle LTB4 were determined by nonlinear regression (Graphpad Prism) of % inhibition versus log drug is concentration.
# CYP 1A2 = CYP 1A2 (Homo sapiens, UniProt P05177); experiment: Extracellular Cytochrome P450 inhibition, 1A2
# Experimental: Aliquots of this mixture to (89 μL) were delivered to each well of a 96-well polypropylene plate which contained an aliquot of inhibitor (1 μL). Final solvent concentrations were 1% (v/v) or less. Incubations were commenced with the addition of 10 μL β-NADPH (10 mM stock) to a final volume of 100 μL. […] Samples were centrifuged, and supernatant was transferred for LC-MS analysis.
# [2] = test system: production of LTB4 after ionophore stimulation in washed human leukocytes; experiment: LTB4 inhibition in washed human leukocytes; assay type: cell-based; details: Leukocyte, mean of 4 tests
# CYP3A4 = biological target: T1, CYP3A4 (Homo sapiens, UniProt P08684); experiment: Extracellular Cytochrome P450 inhibition, 3A4; assay type: in vitro ADME
# T1 construct: from tissue
# urinary LTE4 production = experiment: Phase I study, urinary LTE4; assay type: in vivo, human; details: for Emax: Homo sapiens
# Text: (§1) Study Design: Single center, double-blind, randomized, placebo-controlled, single ascending dose followed by multiple ascending dose study.
# (§2) Sample Size: (1) Single Dose Phase: eight (8) subjects (6 active, 2 placebo) per dose level; up to 5 dose levels are planned (a total of 40 subjects if all 5 dose levels are completed); and (2) Multiple Dose Phase: eight (8) subjects (6 active, 2 placebo) per dose level; up to 4 dose levels are planned (a total of 32 subjects if all 4 dose levels are completed).
# (§3) Formulations: Compound 2 was supplied as an oral powder for reconstitution. Placebo solution matched. […] The placebo differed only in the absence of the active.
# (§4) The following dosing cohorts were used:
# (§5) Routes of Administration: All doses were administered orally with approximately 100 mL of water rinse. Subjects were fasted for at least 8 hours prior to dosing and for 2 hours after dosing. For BID dosing in the Multiple Dose Phase, when applicable, subjects were fasted for at least 2 hours prior to the second daily dose.
# (§6) Plasma concentrations of Compound 1 were determined using a validated LC/MS method. Whole blood ionophore-stimulated leukotriene LTB4 and urinary LTE4 production were assayed by ELISA and mass spectrometry, respectively.
# (§7) Analysis of Samples: Concentrations of Compound 1 was determined in plasma samples collected from subjects. Similarly, concentrations of LTB4 in plasma and urinary LTE4 were determined in blood and urine samples collected.
# [3] = test system: whole blood ionophore-stimulated leukotriene LTB4; experiment: Phase I study, whole blood ionophore-stimulated LTB4; assay type: in vivo, human; details: for Emax / EC50 / EC90: Homo sapiens; for Emax: read-out: Emax (%), maximum inhibition of LTB4; for EC50: read-out: EC50 (ng/mL), concentration at which 50% inhibition was reached; for LTB4 level at t = 24 hrs. (% of baseline): oral solution
# Text: as §1, §2, §3, §4, §5, §6, §7
# [4] = 24 h, Multiple dose part, Day 1, 10 mg
# [5] = 24 h, Multiple dose part, Day 1, 50 mg
# [6] = 24 h, Multiple dose part, Day 1, 150 mg
# [7] = 24 h, Multiple dose part, Day 1, 450 mg
# [8] = 24 h, Single dose part, Day 1, 50 mg
# [9] = 24 h, Single dose part, Day 1, 150 mg
# [10] = 24 h, Single dose part, Day 1, 300 mg
# [11] = 24 h, Single dose part, Day 1, 600 mg
# [12] = 24 h, Single dose part, Day 1, 1000 mg
# [13] = 264 h, Multiple dose part, Day 11, 10 mg
# [14] = 264 h, Multiple dose part, Day 11, 50 mg
# [15] = 264 h, Multiple dose part, Day 11, 150 mg
# [16] = 264 h, Multiple dose part, Day 11, 450 mg
# [17] = Multiple dose part, Day 1, 10 mg
# [18] = Multiple dose part, Day 1, 50 mg
# [19] = Multiple dose part, Day 1, 150 mg
# [20] = Multiple dose part, Day 1, 450 mg
# [21] = Multiple dose part, Day 11, 10 mg
# [22] = Multiple dose part, Day 11, 50 mg
# [23] = Multiple dose part, Day 11, 150 mg
# [24] = Multiple dose part, Day 11, 450 mg
# [25] = Single dose part, Day 1, 150 mg
# [26] = Single dose part, Day 1, 300 mg
# [27] = Single dose part, Day 1, 600 mg
# [28] = Single dose part, Day 1, 1000 mg
# T1 sequence (P08684 whole entry): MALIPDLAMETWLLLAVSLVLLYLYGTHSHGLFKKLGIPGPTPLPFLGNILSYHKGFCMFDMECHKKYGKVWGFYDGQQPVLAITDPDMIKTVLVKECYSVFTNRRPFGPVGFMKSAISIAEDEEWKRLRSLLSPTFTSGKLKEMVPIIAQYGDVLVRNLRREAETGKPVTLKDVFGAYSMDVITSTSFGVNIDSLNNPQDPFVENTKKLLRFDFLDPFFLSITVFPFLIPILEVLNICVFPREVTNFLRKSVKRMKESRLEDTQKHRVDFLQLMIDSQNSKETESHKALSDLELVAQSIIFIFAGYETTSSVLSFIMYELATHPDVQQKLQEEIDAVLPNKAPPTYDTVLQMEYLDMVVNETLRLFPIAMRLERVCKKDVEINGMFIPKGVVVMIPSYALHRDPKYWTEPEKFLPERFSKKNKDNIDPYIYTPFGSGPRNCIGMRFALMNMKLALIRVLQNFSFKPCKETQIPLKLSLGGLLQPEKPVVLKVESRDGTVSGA
# Chain of CYP 1A2 (P05177 whole entry): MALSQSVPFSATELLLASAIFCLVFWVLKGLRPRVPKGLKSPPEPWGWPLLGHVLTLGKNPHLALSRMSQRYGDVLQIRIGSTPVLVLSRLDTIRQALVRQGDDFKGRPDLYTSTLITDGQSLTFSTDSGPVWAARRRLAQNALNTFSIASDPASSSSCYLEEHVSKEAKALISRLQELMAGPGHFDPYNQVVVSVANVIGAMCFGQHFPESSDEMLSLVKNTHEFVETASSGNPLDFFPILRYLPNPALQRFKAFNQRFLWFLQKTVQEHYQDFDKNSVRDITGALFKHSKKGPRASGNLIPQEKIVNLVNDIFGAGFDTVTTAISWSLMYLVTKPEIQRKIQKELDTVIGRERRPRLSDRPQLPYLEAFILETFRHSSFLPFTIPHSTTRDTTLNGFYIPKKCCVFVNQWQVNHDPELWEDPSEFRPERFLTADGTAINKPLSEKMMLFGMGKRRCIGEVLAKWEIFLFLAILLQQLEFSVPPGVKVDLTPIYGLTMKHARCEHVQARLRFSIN
compound,measurement,setting,value
"CCOc1ccc(-c2ccc(Cn3c(CC(C)(C)C(=O)[O-])c(SC(C)(C)C)c4cc(OCc5ccc(C)cn5)ccc43)cc2)cn1.[Na+] [Compound 2, sodium 3-[3-(tert-butylsulfanyl)-1-[4-(6-ethoxy-pyridin-3-yl)benzyl]-5-(5-methyl-pyridin-2-yl-methoxy)-1H-indol-2-yl]-2,2-dimethylpropionate]",induction of CYP2C9,CYP2C9,No apparent induction
same,IC90,[1],1310 nM
same,IC50,CYP 1A2,> 40000 nM
same,IC50,[2],0.44 nM
same,IC50,CYP3A4; midazolam 1-hydroxylation,> 50000 nM
same,IC50,CYP3A4; testosterone 6β-hydroxylation,> 40000 nM
same,Emax,urinary LTE4 production; [4],54.1%
same,Emax,urinary LTE4 production; [5],94%
same,Emax,urinary LTE4 production; [6],98.3%
same,Emax,urinary LTE4 production; [7],85.7%
same,Emax,urinary LTE4 production; [8],86.3%
same,Emax,urinary LTE4 production; [9],97.4%
same,Emax,urinary LTE4 production; [10],97%
same,Emax,urinary LTE4 production; [11],96%
same,Emax,urinary LTE4 production; [12],96.6%
same,Emax,urinary LTE4 production; [13],88.6%
same,Emax,urinary LTE4 production; [14],97.7%
same,Emax,urinary LTE4 production; [15],97.5%
same,Emax,urinary LTE4 production; [16],98.4%
same,"Tmax (h), LTE4",urinary LTE4 production; [17],24.00 h
same,"Tmax (h), LTE4",urinary LTE4 production; [18],16.00 h
same,"Tmax (h), LTE4",urinary LTE4 production; [19],24.00 h
same,"Tmax (h), LTE4",urinary LTE4 production; [20],24.00 h
same,"Tmax (h), LTE4",urinary LTE4 production; [21],12.00 h
same,"Tmax (h), LTE4",urinary LTE4 production; [22],9.00 h
same,"Tmax (h), LTE4",urinary LTE4 production; [23],24.00 h
same,"Tmax (h), LTE4",urinary LTE4 production; [24],12.00 h
same,"Tmax (h), LTE4","urinary LTE4 production; Single dose part, Day 1, 50 mg",16.00 h
same,"Tmax (h), LTE4",urinary LTE4 production; [25],16.00 h
same,"Tmax (h), LTE4",urinary LTE4 production; [26],24.00 h
same,"Tmax (h), LTE4",urinary LTE4 production; [27],24.00 h
same,"Tmax (h), LTE4",urinary LTE4 production; [28],16.00 h
same,Emax,[3]; [4],60.8%
same,Emax,[3]; [5],89.6%
same,Emax,[3]; [6],98.5%
same,Emax,[3]; [7],97.6%
same,EC50,"[3]; 24 h, Multiple dose part, Day 1, Multiple dose total",51 ng/mL
same,Emax,[3]; [8],87.9%
same,Emax,[3]; [9],98.8%
same,Emax,[3]; [10],102%
same,Emax,[3]; [11],100%
same,Emax,[3]; [12],99.6%
same,EC50,"[3]; 24 h, Single dose part, Day 1, Single dose total",90 ng/mL
same,EC90,"[3]; 24 h, read-out: EC90 (ng/mL), concentration at which 90% inhibition was reached, Multiple dose part, Day 1, Multiple dose total",296 ng/mL
same,EC90,"[3]; 24 h, read-out: EC90 (ng/mL), concentration at which 90% inhibition was reached, Single dose part, Day 1, Single dose total",342 ng/mL
same,Emax,[3]; [13],74.4%
same,Emax,[3]; [14],97.9%
same,Emax,[3]; [15],99.7%
same,Emax,[3]; [16],101%
same,EC50,"[3]; 264 h, Multiple dose part, Day 11, Multiple dose total",52 ng/mL
same,EC90,"[3]; 264 h, read-out: EC90 (ng/mL), concentration at which 90% inhibition was reached, Multiple dose part, Day 11, Multiple dose total",308 ng/mL
same,"Tmax (h), time to reach Emax",[3]; [17],12.00 h
same,"tE>90% (h), time above 90% LTB4 inhibition",[3]; [17],0.0 h
same,"Tmax (h), time to reach Emax",[3]; [18],4.00 h
same,"tE>50% (h), time above 50% LTB4 inhibition",[3]; [18],>23.3 h
same,"tE>90% (h), time above 90% LTB4 inhibition",[3]; [18],0.0 h
same,"Tmax (h), time to reach Emax",[3]; [19],3.00 h
same,"tE>50% (h), time above 50% LTB4 inhibition",[3]; [19],>23.4 h
same,"Tmax (h), time to reach Emax",[3]; [20],3.00 h
same,"tE>50% (h), time above 50% LTB4 inhibition",[3]; [20],>23.7 h
same,"Tmax (h), time to reach Emax",[3]; [21],12.00 h
same,"tE>90% (h), time above 90% LTB4 inhibition",[3]; [21],0.0 h
same,"Tmax (h), time to reach Emax",[3]; [22],4.00 h
same,"tE>90% (h), time above 90% LTB4 inhibition",[3]; [22],10.0 h
same,"Tmax (h), time to reach Emax",[3]; [23],2.00 h
same,"tE>50% (h), time above 50% LTB4 inhibition",[3]; [23],>72.0 h
same,"Tmax (h), time to reach Emax",[3]; [24],2.00 h
same,"tE>50% (h), time above 50% LTB4 inhibition",[3]; [24],>72.0 h
same,"Tmax (h), time to reach Emax","[3]; Single dose part, Day 1, 50 mg",8.00 h
same,"tE>90% (h), time above 90% LTB4 inhibition","[3]; Single dose part, Day 1, 50 mg",0.0 h
same,"Tmax (h), time to reach Emax",[3]; [25],6.00 h
same,"Tmax (h), time to reach Emax",[3]; [26],8.00 h
same,"tE>50% (h), time above 50% LTB4 inhibition","[3]; Single dose part, Day 1, 300 mg, estimated",~30^# h
same,"Tmax (h), time to reach Emax",[3]; [27],6.00 h
same,"tE>50% (h), time above 50% LTB4 inhibition",[3]; [27],>71.7 h
same,"Tmax (h), time to reach Emax",[3]; [28],6.00 h
same,"tE>50% (h), time above 50% LTB4 inhibition",[3]; [28],>71.7 h
same,LTB4 level at t = 24 hrs. (% of baseline),[3]; single dose 50 mg,37 ± 4.7 % of baseline
same,LTB4 level at t = 24 hrs. (% of baseline),[3]; single dose 150 mg,24 ± 4.4 % of baseline
same,LTB4 level at t = 24 hrs. (% of baseline),[3]; single dose 300 mg,23 ± 8.3 % of baseline
same,LTB4 level at t = 24 hrs. (% of baseline),[3]; single dose 600 mg,1.6 ± 0.98 % of baseline
same,LTB4 level at t = 24 hrs. (% of baseline),[3]; single dose 1000 mg,1.9 ± 0.41 % of baseline

# From US20110160249A1, “5-LIPOXYGENASE-ACTIVATING PROTEIN INHIBITOR” (priority 2008, published 2011)
